≈ marks a conversion by molar mass, not a printed value.
Tests used:
Assay type in all cases: functional
[1] = system: Escherichia coli; experiment: Antimicrobial activity against Escherichia coli MTCC 442 by broth microdilution method
[2] = system: Pseudomonas aeruginosa; experiment: Antimicrobial activity against Pseudomonas aeruginosa MTCC 2488 by broth microdilution method
[3] = system: Aspergillus niger; experiment: Antimicrobial activity against Aspergillus niger MTCC 282
[4] = system: Candida albicans; experiment: Antimicrobial activity against Candida albicans MTCC 227
[5] = system: Streptococcus pyogenes; experiment: Antimicrobial activity against Streptococcus pyogenes MTCC 443 by broth microdilution method
[6] = system: Staphylococcus aureus; experiment: Antimicrobial activity against Staphylococcus aureus MTCC 96 by broth microdilution method
[7] = system: Aspergillus clavatus; experiment: Antimicrobial activity against Aspergillus clavatus MTCC 1323
[8] = system: Mycobacterium tuberculosis; experiment: Antimicrobial activity against Mycobacterium tuberculosis H37Rv; settings: for MIC: Mycobacterium tuberculosis, H37Rv

| SMILES | MIC [1] [µg/mL] | MIC [2] [µg/mL] | MIC [3] [µg/mL] | MIC [4] [µg/mL] | MIC [5] [µg/mL] | MIC [6] [µg/mL] | MIC [7] [µg/mL] | inhibition (INH) [8] [%] | MIC [8] [µg/mL] |
| --- | --- | --- | --- | --- | --- | --- | --- | --- | --- |
| COc1ccc(-c2cc(=O)n(-c3cccc(Cl)c3)c(N3CCCC3)c2/N=N/c2c(Cl)cc([N+](=O)[O-])c(Cl)c2Cl)cc1 | 250 (≈ 395 µM) | 250 (≈ 395 µM) | 1000 (≈ 1580 µM) | 250 (≈ 395 µM) | 200 (≈ 316 µM) | 200 (≈ 316 µM) | 1000 (≈ 1580 µM) | – | – |
| COc1ccc(-c2cc(Cl)n(-c3cccc(Cl)c3)c(=O)c2)cc1 | 100 (≈ 289 µM) | 100 (≈ 289 µM) | 500 (≈ 1440 µM) | 500 (≈ 1440 µM) | 200 (≈ 578 µM) | 200 (≈ 578 µM) | 500 (≈ 1440 µM) | – | – |
| COc1ccc(-c2cc(=O)n(-c3cccc(Cl)c3)c(N3CCCC3)c2/N=N/c2ccc([N+](=O)[O-])cc2Cl)cc1 | 250 (≈ 443 µM) | 250 (≈ 443 µM) | 500 (≈ 886 µM) | 500 (≈ 886 µM) | 200 (≈ 354 µM) | 200 (≈ 354 µM) | 500 (≈ 886 µM) | – | – |
| COC1=CC(=O)C[C@@H](C)[C@]12Oc1c(Cl)c(OC)cc(OC)c1C2=O [GRISEOFULVIN] | – | – | 100 (≈ 283 µM) | 500 (≈ 1420 µM) | – | – | 100 (≈ 283 µM) | – | – |
| COc1ccc(-c2cc(=O)n(-c3cccc(Cl)c3)c(N3CCCC3)c2/N=N/c2ccccc2Cl)cc1 | 250 (≈ 481 µM) | 100 (≈ 193 µM) | 500 (≈ 963 µM) | 250 (≈ 481 µM) | 250 (≈ 481 µM) | 250 (≈ 481 µM) | 250 (≈ 481 µM) | – | – |
| COc1ccc(-c2cc(=O)n(-c3cccc(Cl)c3)c(N3CCCC3)c2/N=N/c2cccc(C)c2)cc1 | 250 (≈ 501 µM) | 250 (≈ 501 µM) | 500 (≈ 1000 µM) | 500 (≈ 1000 µM) | 200 (≈ 401 µM) | 250 (≈ 501 µM) | 500 (≈ 1000 µM) | – | – |
| COc1ccc(-c2cc(=O)n(-c3cccc(Cl)c3)c(N3CCCC3)c2/N=N/c2ccccc2[N+](=O)[O-])cc1 | 200 (≈ 377 µM) | 200 (≈ 377 µM) | 500 (≈ 943 µM) | 250 (≈ 472 µM) | 100 (≈ 189 µM) | 100 (≈ 189 µM) | 250 (≈ 472 µM) | – | – |
| COc1ccc(-c2cc(=O)n(-c3cccc(Cl)c3)c(N3CCCC3)c2/N=N/c2cccc([N+](=O)[O-])c2)cc1 | 250 (≈ 472 µM) | 200 (≈ 377 µM) | 500 (≈ 943 µM) | 500 (≈ 943 µM) | 250 (≈ 472 µM) | 250 (≈ 472 µM) | 500 (≈ 943 µM) | – | – |
| COc1ccc(-c2cc(N3CCCC3)n(-c3cccc(Cl)c3)c(=O)c2/N=N/c2c(Cl)cc([N+](=O)[O-])cc2Cl)cc1 | 250 (≈ 417 µM) | 250 (≈ 417 µM) | 1000 (≈ 1670 µM) | 250 (≈ 417 µM) | 200 (≈ 334 µM) | 200 (≈ 334 µM) | 1000 (≈ 1670 µM) | – | – |
| COc1ccc(-c2cc(N3CCCC3)n(-c3cccc(Cl)c3)c(=O)c2/N=N/c2ccc(Cl)cc2)cc1 | 500 (≈ 963 µM) | 500 (≈ 963 µM) | 1000 (≈ 1930 µM) | 1000 (≈ 1930 µM) | 500 (≈ 963 µM) | 500 (≈ 963 µM) | 1000 (≈ 1930 µM) | – | – |
| COc1ccc(-c2cc(=O)n(-c3cccc(Cl)c3)c(N3CCCC3)c2/N=N/c2ccccc2)cc1 | 250 (≈ 515 µM) | 500 (≈ 1030 µM) | 250 (≈ 515 µM) | 500 (≈ 1030 µM) | 250 (≈ 515 µM) | 250 (≈ 515 µM) | 500 (≈ 1030 µM) | – | – |
| COc1ccc(-c2cc(=O)n(-c3cccc(Cl)c3)c(N3CCCC3)c2/N=N/c2ccc(C)cc2)cc1 | 200 (≈ 401 µM) | 250 (≈ 501 µM) | 250 (≈ 501 µM) | 250 (≈ 501 µM) | 200 (≈ 401 µM) | 200 (≈ 401 µM) | 500 (≈ 1000 µM) | – | – |
| COc1ccc(-c2cc(N3CCCC3)n(-c3cccc(Cl)c3)c(=O)c2/N=N/c2cccc([N+](=O)[O-])c2)cc1 | 200 (≈ 377 µM) | 200 (≈ 377 µM) | 500 (≈ 943 µM) | 500 (≈ 943 µM) | 250 (≈ 472 µM) | 250 (≈ 472 µM) | 500 (≈ 943 µM) | – | – |
| CO[C@H]1/C=C/O[C@@]2(C)Oc3c(C)c(O)c4c(O)c(c(/C=N/N5CCN(C)CC5)c(O)c4c3C2=O)NC(=O)/C(C)=C\C=C\[C@H](C)[C@H](O)[C@@H](C)[C@@H](O)[C@@H](C)[C@H](OC(C)=O)[C@@H]1C [RIFAMPIN] | – | – | – | – | – | – | – | 98 | 40 (≈ 48.6 µM) |
| COc1ccc(-c2cc(N3CCCC3)n(-c3cccc(Cl)c3)c(=O)c2/N=N/c2ccc(Cl)cc2[N+](=O)[O-])cc1 | 250 (≈ 443 µM) | 500 (≈ 886 µM) | 200 (≈ 354 µM) | 500 (≈ 886 µM) | 250 (≈ 443 µM) | 250 (≈ 443 µM) | 200 (≈ 354 µM) | 98 | 1000 (≈ 1770 µM) |
| COc1ccc(-c2cc(N3CCCC3)n(-c3cccc(Cl)c3)c(=O)c2/N=N/c2ccccc2Cl)cc1 | 100 (≈ 193 µM) | 100 (≈ 193 µM) | 250 (≈ 481 µM) | 500 (≈ 963 µM) | 250 (≈ 481 µM) | 250 (≈ 481 µM) | 250 (≈ 481 µM) | – | – |
| COc1ccc(-c2cc(N3CCCC3)n(-c3cccc(Cl)c3)c(=O)c2/N=N/c2ccccc2[N+](=O)[O-])cc1 | 100 (≈ 189 µM) | 200 (≈ 377 µM) | 500 (≈ 943 µM) | 500 (≈ 943 µM) | 100 (≈ 189 µM) | 100 (≈ 189 µM) | 500 (≈ 943 µM) | – | – |
| O=C(O)c1cn(C2CC2)c2cc(N3CCNCC3)c(F)cc2c1=O [CIPROFLOXACIN] | 25 (≈ 75.4 µM) | – | – | – | 50 (≈ 151 µM) | 50 (≈ 151 µM) | – | – | – |

From ChEMBL document CHEMBL3046502, “In vitro antimicrobial and antitubercular studies of novel 6-substituted (pyrrolidin-1-yl)-2(1H)-pyridinones” (2012)
